Experimental data as given in BindingDB's records for doi:10.1016/j.bmcl.2018.01.029 (Presidio Pharmaceuticals, 2018).

What was measured:
[1] = Inhibition of HCV genotype 1b NS5B polymerase infected in human HuH7 replicon cells by luciferase reporter gene assay
[2] = Inhibition of HCV genotype 1a NS5A polymerase infected in human HuH7 replicon cells by luciferase reporter gene assay
[3] = Inhibition of HCV genotype 1a NS5A polymerase L31V/Y93H double mutant infected in human HuH7 replicon cells by luciferase reporter gene assay
[4] = Inhibition of HCV genotype 2a NS5B polymerase infected in human HuH7 replicon cells by luciferase reporter gene assay
[5] = Inhibition of HCV genotype 3a NS5B polymerase infected in human HuH7 replicon cells by luciferase reporter gene assay
[6] = Inhibition of HCV genotype 4a NS5B polymerase infected in human HuH7 replicon cells by luciferase reporter gene assay
[7] = Inhibition of NS5B polymerase in HCV genotype 1b infected human HuH7 replicon cells assessed as reduction in viral RNA level after 3 days by RT-PCR assay

| SMILES | EC50 [1] | EC50 [2] | EC50 [3] | EC50 [4] | EC50 [5] | EC50 [6] | EC50 [7] |
| --- | --- | --- | --- | --- | --- | --- | --- |
| CNC(=O)c1c(-c2ccc(F)cc2)oc2cc3c(cc12)C(C)OCCN3S(C)(=O)=O (stereo unspecified) | 11 nM | 28 nM | 21 nM |  |  |  |  |
| CNC(=O)c1c(-c2ccc(F)cc2)oc2cc3c(cc12)CCCCN3C(C)=O |  | > 2000 nM | > 2000 nM |  |  |  |  |
| CNC(=O)c1c(-c2ccc(F)cc2)oc2cc3c(cc12)[C@H](C)O[C@H](CO)CN3S(C)(=O)=O | 3 nM | 9 nM |  | 12 nM | 6 nM | 9 nM |  |
| CNC(=O)c1c(-c2ccc(F)cc2)oc2cc3c(cc12)CCCCN3S(=O)(=O)C1CC1 | 73 nM | 335 nM | 423 nM |  |  |  |  |
| CNC(=O)c1c(-c2ccc(F)cc2)oc2cc3c(cc12)C(C)OCC(CS(C)(=O)=O)N3S(C)(=O)=O (stereo unspecified) | 19 nM | 16 nM |  | 134 nM | 70 nM | 51 nM |  |
| CNC(=O)c1c(-c2ccc(F)cc2)oc2cc3c(cc12)[C@H](C)CCCN3S(C)(=O)=O | 4 nM | 10 nM | 9 nM |  |  |  |  |
| CNC(=O)c1c(-c2ccc(F)cc2)oc2cc3c(cc12)C(C)OCC(CO)N3S(C)(=O)=O (stereo unspecified) | 33 nM | 40 nM |  | 141 nM | 53 nM | 117 nM |  |
| CNC(=O)c1c(-c2ccc(F)cc2)oc2cc3c(cc12)[C@H](C)O[C@H](CS(C)(=O)=O)CN3S(C)(=O)=O | 3 nM | 4 nM |  | 18 nM | 10 nM | 7 nM |  |
| CNC(=O)c1c(-c2ccc(F)cc2)oc2cc3c(cc12)C(C)OC(CS(C)(=O)=O)CN3S(C)(=O)=O (stereo unspecified) | 7 nM | 9 nM |  | 64 nM | 17 nM | 17 nM |  |
| CNC(=O)c1c(-c2ccc(F)cc2)oc2cc3c(cc12)C(C)OC(CO)CN3S(C)(=O)=O (stereo unspecified) | 12 nM | 52 nM |  | 62 nM | 20 nM | 32 nM |  |
| CNC(=O)c1c(-c2ccc(F)cc2)oc2cc3c(cc12)C(C)NC(=O)CN3S(C)(=O)=O (stereo unspecified) | 15 nM | 19 nM | 14 nM |  |  |  |  |
| CNC(=O)c1c(-c2ccc(F)cc2)oc2cc3c(cc12)C1CC1CCN3S(C)(=O)=O (stereo unspecified) | 9 nM | 35 nM | 44 nM |  |  |  |  |
| CS(=O)(=O)N1CCCCc2cc3c(-c4ncc[nH]4)c(-c4ccc(F)cc4)oc3cc21 | 5 nM | 33 nM | 59 nM |  |  |  |  |
| CNC(=O)c1c(-c2ccc(F)cc2)oc2cc(N(CCO)S(C)(=O)=O)c(C3CC3)cc12 [HCV 796] | 12 nM | 24 nM |  | 72 nM | 19 nM | 21 nM | 9 nM |
